Values joined by “and” are separate entries in the source; they are usually repeats but may differ in a detail not shown here. Identical values can stand only once.
How the values were obtained:
ovariectomized rats = test: Osteoporosis amelioration in ovariectomized rats; type: in vivo; conditions: femur, 13.3 mL/kg once a day for 30 days
From the text: Female SD rats, 250 g to 280 g in body weight, were purchased from Shanghai Sippr-BK Lab Animal Co., Ltd.
(§1) The solutions of Compositions 1 to 7 prepared in this example were used.
After receiving ovariectomy, rats were fed normally for one week. By body weight, the rats were randomly divided into 11 groups, i.e., a blank control group, administration groups 1 to 7 and negative control groups 1 to 3. The rats in administration groups 1 to 7 were intragastrically administered with the solutions of Compositions 1 to 7 respectively at a dose of 13.3 mL/kg body weight while the rats in the blank control group were intragastrically given sterile water for medical use at a dose of 13.3 mL/kg body weight. The rats in negative control groups 1 to 3 were intragastrically given the solution of trehalose (0.15 g/mL), the solution of validamycin (0.3 mg/mL) and the solution of algal polysaccharides (0.15 g/mL) at a dose of 13.3 mL/kg body weight respectively. Administration was conducted once a day and lasted for 30 days. Normal rats were arranged in a normal group and fed normally all the time. Twenty to 30 min post last administration, all rats were killed by cervical vertebrae dislocation, and their femurs were taken out. Then, the bone density and mineral content in the femur were determined.

[1] = tested on: patients with type-II diabetes; test: Short-term experiment for treatment in human diabetics; type: in vivo; conditions: for effect on blood glucose level in patients with type-II diabetes, short-term / Blood glucose level after administration: 200 mL oral; for Blood glucose level after administration / Blood glucose level before administration: individual type-II diabetes patients; for Blood glucose level before administration: fasting baseline
Protocol: Six patients with type-II diabetes were fasted overnight and then measured for fasting blood glucose level. Then they were orally administered with 200 mL of the solution of Composition 1, or 200 mL of solution of trehalose (0.15 g/mL), or 200 mL of the solution of validamycin (0.3 mg/mL), or 200 mL of distilled water, as stated in Table 3.3. The blood glucose level in every patient was tested before administration and 30 min, 60 min and 120 min post administration.

Male ICR mice = test: In vivo absorption: blood glucose in fasted normal mice after intragastric administration; conditions: for Blood glucose level after administration: 13.3 mL/kg intragastric; for Blood glucose level before administration: baseline, mice fasted 12 h; for blood glucose level compared to the blank control group: before or after administration, normal mice
Protocol: Male ICR mice, 8 weeks old, 20±2 g in body weight, were purchased from Beijing HFK Bioscience Co., Ltd.
The composition used in the present experiment example was the solution of Composition 1. In particular, 15 g of trehalose and 3 mg of validamycin were picked and then dissolved in 100 mL of sterile water for medical use to provide the solution of Composition 1 which was kept for future use.
After normally fed for 3 days, the mice fasted for 12 h with water sufficiently supplied. Then, they were randomly divided into 4 groups depending on the blood glucose, i.e., a blank control group, an administration group, and negative control group 1 and negative control group 2. The mice in the administration group were intragastrically given the solution of Composition 1 prepared in this experimental example at a dose of 13.3 mL/kg body weight while the mice in the blank control group were intragastrically given sterile water for medical use at a dose of 13.3 mL/kg body weight. In addition, the mice in negative control group 1 and 2 were respectively intragastrically given the solution of trehalose (0.15 g/mL) and the solution of validamycin (0.3 mg/mL) at the same dose of 13.3 mL/kg body weight. The blood glucose levels before administration and 10 min, 25 min, 40 min and 60 min post administration were measured respectively, and the results were shown in Table 2.

normal mice [2] = test: Enterocinesia in normal mice (carbon powder movement in small intestine); type: in vivo; conditions: 13.3 mL/kg intragastric; for Movement distance of carbon powder: carbon powder 20 to 30 min later, killed 15 to 20 min after; for Movement distance of carbon powder/full length of small intestine: normal mice
Protocol: (§2) Male ICR mice, 8 weeks old and 20±2 g in body weight, were purchased from Beijing HFK Bioscience Co., Ltd.
Solutions of Compositions 1 to 7 were used in the experiment.
A suspension of carbon powder of 0.1 g/mL was also used. In particular, 1 g of carbon powder was added to and then suspended evenly in 10 mL of normal saline.
After the mice were fed normally for 3 days, they were given no food but water for 18-24 h. By the body weight, the mice were randomly divided into 11 groups, i.e., a blank control group, administration groups 1 to 7 and negative control groups 1 to 3. The mice in administration groups 1 to 7 were respectively intragastrically administered with the solutions of Compositions 1 to 7 at a dose of 13.3 mL/kg body weight while the mice in the blank control group were intragastrically given sterile water for medical use at a dose of 13.3 mL/kg body weight. The mice in negative control groups 1 to 3 were respectively intragastrically administered with the solution of trehalose (0.15 g/mL), the solution of validamycin (0.3 mg/mL) and the solution of algal polysaccharide (0.15 g/ml) at a dose of 13.3 mL/kg body weight. At 20 to 30 min post administration, all mice were intragastrically given the suspension of carbon powder at a dose of 0.2 mL/10 g body weight. At 15 to 20 min post the administration of the carbon powder suspension, the mice were killed by cervical vertebrae dislocation and then were quickly dissected to separate the small intestines. The movement distance of the carbon powder (the distance measured from the carbon powder at the forefront to the end of the duodenum closer to heart) and the full length of the small intestine were measured.

normal mice [3] = test: Acetic acid writhing (pain) in normal mice; type: in vivo; conditions: for Time of initial writhing: 13.3 mL/kg intragastric, 0.6% acetic acid i.p. 20 min later; for Pain inhibition ratio: relative to number of writhings in blank control group; for Number of writhings: within 30 min after acetic acid injection
From the text: as §2, §1
After mice were normally fed for 3 days, they were randomly divided into 11 groups depending on body weight, i.e., a blank control group, administration groups 1 to 7 and negative control groups 1 to 3, by body weight. The mice in administration groups 1 to 7 were intragastrically given the solutions of Compositions 1 to 7 respectively at a dose of 13.3 mL/kg body weight while the mice in the blank control group were intragastrically given sterile water for medical use at a dose of 13.3 mL/kg body weight. The mice in negative control groups 1 to 3 were intragastrically given the solution of trehalose (0.15 g/mL), the solution of validamycin (0.3 mg/mL) and the solution of algal polysaccharides (0.15 g/mL) at a dose of 13.3 mL/kg body weight respectively. Twenty minutes after the administration, the mice were intraperitoneally administered with 0.2 ml of solution of acetic acid (0.6%). Then, the number of writhing and time when initial writhing occurred in mice were observed within 30 min after injection of acetic acid solution and the pain inhibition ratio (pain inhibition ratio=(number of writhings in the blank control group—number of writhings in the administration group)/number of writhings in the blank control group) was calculated.

## OC[C@H]1O[C@H](O[C@H]2O[C@H](CO)[C@@H](O)[C@H](O)[C@H]2O)[C@H](O)[C@@H](O)[C@@H]1O [trehalose]
Ovariectomized rats
  Bone density: 0.1037 ± 0.0211 g/cm^2
  Mineral content: 0.1245 ± 0.0374 g/cm
[1]
  effect on blood glucose level in patients with type-II diabetes, short-term: significantly raised the blood glucose level
  Blood glucose level before administration: 15.3 mmol/L
[1]; 30 min
  Blood glucose level after administration: 25.5 mmol/L
[1]; 60 min
  Blood glucose level after administration: 20.1 mmol/L
[1]; 120 min
  Blood glucose level after administration: 17.3 mmol/L
Male ICR mice; 10 min
  Blood glucose level after administration: 6.4 ± 0.40 mmol/L
Male ICR mice; 25 min
  Blood glucose level after administration: 9.5 ± 1.00 mmol/L
Male ICR mice; 40 min
  Blood glucose level after administration: 11.0 ± 0.30 mmol/L
Male ICR mice; 60 min
  Blood glucose level after administration: 9.5 ± 1.12 mmol/L
Male ICR mice
  Blood glucose level before administration: 4.9 ± 0.53 mmol/L
  blood glucose level compared to the blank control group: increased significantly
Normal mice [2]
  Movement distance of carbon powder: 33.6 ± 3.40 cm
  Movement distance of carbon powder/full length of small intestine: 71.9 ± 8.20%
Normal mice [3]
  Time of initial writhing: 3.4 ± 1.1 min
  Pain inhibition ratio: 0.0%
  Number of writhings: 51.3 ± 1.6

## OCC1=C[C@H](N[C@H]2C[C@H](CO)[C@@H](O[C@@H]3O[C@H](CO)[C@@H](O)[C@H](O)[C@H]3O)[C@H](O)[C@H]2O)[C@H](O)[C@@H](O)[C@@H]1O [validamycin]
Ovariectomized rats
  Bone density: 0.1063 ± 0.0222 g/cm^2
  Mineral content: 0.1212 ± 0.0311 g/cm
[1]
  effect on blood glucose level in patients with type-II diabetes, short-term: had no influence on blood glucose level
[1]; 30 min, listed as Solution of validamycin
  Blood glucose level after administration: 9.5 mmol/L and 15.7 mmol/L
[1]; 60 min, listed as Solution of validamycin
  Blood glucose level after administration: 9.6 mmol/L and 16.1 mmol/L
[1]; 120 min, listed as Solution of validamycin
  Blood glucose level after administration: 9.1 mmol/L and 14.8 mmol/L
[1]; listed as Solution of validamycin
  Blood glucose level before administration: 9.3 mmol/L and 15.5 mmol/L
Male ICR mice; 10 min
  Blood glucose level after administration: 5.3 ± 0.45 mmol/L
Male ICR mice; 25 min
  Blood glucose level after administration: 5.7 ± 0.56 mmol/L
Male ICR mice; 40 min
  Blood glucose level after administration: 5.2 ± 0.23 mmol/L
Male ICR mice; 60 min
  Blood glucose level after administration: 5.3 ± 0.20 mmol/L
Male ICR mice
  Blood glucose level before administration: 5.2 ± 0.44 mmol/L
  blood glucose level compared to the blank control group: no significant difference
Normal mice [2]
  Movement distance of carbon powder: 29.3 ± 2.34 cm
  Movement distance of carbon powder/full length of small intestine: 66.3 ± 6.57%
Normal mice [3]
  Time of initial writhing: 3.6 ± 1.6 min
  Pain inhibition ratio: 0.0%
  Number of writhings: 51.9 ± 2.1

Reference: patent publication US9937198B2, “Multi-functional composition and preparation method and application thereof” (Suzhou Sciscape Bio-Pharmaceutical Technology Co., Ltd., priority 2013, dated 2018)
